Patent publication US12433903B2 (priority 2021, dated 2025)
Entries after “also recorded” stand apart in the source; their conditions may differ. Read-outs that look alike come from different tables or passages of the source.

Tests used:
PTZ-induced seizure = assay: PTZ-induced epilepsy (seizure) mouse model; format: in vivo; settings: 100 mg/kg IP, CBD 60 minutes, Compound 3 30 minutes prior to PTZ 80 mg/kg; for Survival Effects: mortality rate compared to the vehicle/PTZ group: 30 minute observation
Description: Mouse models using GABAa receptor antagonist Pentylenetetrazol (PTZ) are well defined and used as a standard for the identification of potential anticonvulsants to treat generalized clonic seizures (Loscher et al., 1991 Epilepsy Res 8:171-189). The purpose of this study was to evaluate and compare CBD to test article Compound 3, on their therapeutic effects in a mouse model of PTZ-induced seizure. To match up test article plasma concentration time max (Tmax) with the PTZ induced seizures; test articles were administered at 60 minutes and 30 minutes prior to PTZ administration respectively. Vehicle used for treatment groups was 10% EtOH/10% Tween 80/80% Saline.
Mice were acclimated to the procedure room for at least 30 minutes. Pentylenetetrazole (PTZ; Sigma Aldrich) was formulated in water to a concentration of 16 mg/mL. Injections of PTZ were made at a volume of 5 mL/kg to produce a final dose of 80 mg/kg.
A 30-minute maximum latency to seizure was imposed. • Clinical behavior was scored using the following adapted Racine scale: • Score 0, no seizures observed • Score 1, Behavioral arrest (freezing, fixed gaze, staring), vibrissae twitching, mouth or facial clonus • Score 2, Pop or jump, straub tail, foot splay, head nodding • Score 3, Forelimb clonus, extended forelimbs, multiple pops or jerks • Score 4, Rearing and bilateral forelimb clonus, Running and running/bouncing • Score 5, All limb clonus, rearing and falling (stay fallen on rear side) • Score 6, Tonic hindlimb extensions, cardiac arrest
Behavior was scored by an observer blind to treatment. The highest score reached during every 5 minute period during the 30 minutes after PTZ was administered was recorded. Additionally, the percent tonic-clonic (number of animals progressing to the highest seizure score), and percent mortality was also calculated.

[1] = PK and Tmax after intraperitoneal administration; format: in vivo; settings: male C57BL/6 mice; for Tmax: mouse, in vivo
Description: The purpose of this study was to determine the pharmacokinetics and time of maximum plasma (Tmax) of the test articles (TA) CBD and Compound 3 following intraperitoneal (IP) administration to male C57BL/6 mice. This method of TA delivery, dose and mouse strain was to be used in a subsequent Pentylenetetrazol (PTZ) induced seizure model for the evaluation of the TA's for anti-epileptic activity.

[2] = PK study after oral (PO) or intraperitoneal (IP) administration; format: in vivo, male Sprague Dawley rats; settings: CBG 30 mg/kg PO or IP; Compound 1 31.5 mg/kg PO; Compound 2 32.7 mg/kg PO
Procedure: This study evaluated the pharmacokinetics of (E)-2-(3,7-dimethylocta-2,6-dien-1-yl)-3-methoxy-5-pentylphenol (1) and (E)-2-(3,7-dimethylocta-2,6-dien-1-yl)-1,3-dimethoxy-5-pentylbenzene (2) following oral (PO) or intraperitoneal (IP) administration to male Sprague Dawley rats.
For the oral formulation the test article was added to the appropriate amount of Maisine and stirred until uniform. Next Labrasol was added to the formulation and allowed to stir until uniform. Finally, water will be slowly added to the stirring formulation to achieve the final volume.
For the IP formulation the test article was added to the appropriate amount of ethanol and stirred until uniform. Next, the appropriate amount of tween-20 was added to the stirred formulation. Finally, the appropriate amount of saline was slowly added to the stirred formulation to achieve the final volume.
Animals were fasted the evening prior to dosing with food returned at 4 h postdose, and the animals weighed on the morning of dose administration.
IP doses were administered via injection to the intraperitoneal region. PO doses were delivered into the stomach via syringe and gavage tube.
Blood was collected from via direct jugular stick or from the tail vein. Blood samples were kept on ice until being centrifuged at 3200 RPM for 10 minutes at ˜5° C. within 1 h of collection. Plasma was split into 2 cryovials in approximately equal volumes (0.05 mLs) and stored at −20° C.±5° C. until shipment.

[3] = tested on: lipopolysaccharide (LPS)-induced inflammation; assay: Anti-inflammatory activity in a rat LPS model (serum cytokines); format: in vivo, Sprague Dawley rats; settings: PO QD x 4, LPS 5 mg/kg IP, 2 h after LPS
Procedure: This assay was employed to determine the efficacies of CBG, compound 1, and compound 2 against lipopolysaccharide (LPS)-induced inflammation in Sprague Dawley rats.
Eight- to 10-week-old male rats were treated with CBG, Compound 1, and Compound 2, or a positive control (cyclosporin A) for four days prior to treatment with LPS. Twenty-eight (28) Sprague Dawley male rats, 8-10 weeks old, were used for this study. Animals were randomized by weight into one of 7 treatment groups as shown in Table 10 below and treated for 4 days with either vehicle control (Groups 1 and 2), Cyclosporin A (Neoral) (Group 3), CBG at 30 mg/kg (Group 4), Compound 1 at 31.5 mg/kg (Group 5), Compound 2 at 32.7 mg/kg (Group 6) or CBG at 30 mg/kg (intraperitoneal/IP; Group 7). Groups 1-6 were dosed for 4 days by oral gavage; group 7 was dosed for 4 days by IP injection. After the 4th injection, Groups 2-7 received a single IP injection of LPS at 5 mg/kg to induce inflammation. Body weight was recorded every other day starting on the day of or day prior to the first day of treatment. A terminal body weight was recorded. General health and clinical signs were recorded once daily. Blood was collected to isolate immune cells at 2 hours after the LPS injection. […]
Serum samples (N=82) were processed and shipped to Inotiv Boulder for analysis. […] The samples were analyzed for cytokine levels using the RECYTMAG-65K Luminex™ kit. […]

[4] = tested on: indomethacin induced intestinal injury; assay: Indomethacin-induced Crohn's disease in rats; format: in vivo
Procedure: The objective of this study was to determine the efficacy of Compound 1 and Compound 2 in a model of Crohn's disease (indomethacin induced intestinal injury) in rats.
The study design was identical for Compound 1 and Compound 2. On study day -3, rats were weighed and distributed into treatment groups based on body weight.
On study day 0, treatment was initiated and continue as indicated in the Study Design Tables below. Groups 2-6 received a subcutaneous injection of indomethacin (9 mg/kg, 1 ml/kg) in 5% sodium bicarbonate (Sterile Water). On study day 1, Groups 2-6 received a second subcutaneous injection of indomethacin (8 mg/kg, 1 ml/kg) in 5% sodium bicarbonate (Sterile Water). Live phase sample & data collection specifics are outlined below. On study day 4, animals will be euthanized, a section of the small intestine will be removed and weighed. Further necropsy sample and data collection is specified below. Overall efficacy of test articles will be based on body weight, small intestine weight (10 cm), small intestine gross score, and histopathology
At necropsy, the small intestines were evaluated visually and given a gross score according to the following criteria: 0=Normal. 0.5=Very Minimal thickening, multifocal in area at risk. 1=Minimal thickening, fairly diffuse in area at risk. 2=Mild to moderate small intestinal/mesenteric thickening throughout area at risk. 3=Moderate thickening with 1 or more definite adhesions that would be easy to separate. 4=Marked thickening with numerous hard to separate adhesions. 5=Severe intestinal lesion resulting in death.
Preserved 9-cm sections of small intestine were trimmed into 6 transverse sections collected at approximately equal intervals along the […] of the intestine, without bias toward lesion presence or absence. These trimmed sections were processed through graded alcohols and a clearing agent, infiltrated and embedded in paraffin, sectioned, and stained with hematoxylin and eosin (H&E).
Small intestine sections from all animals were examined microscopically by a board-certified veterinary pathologist, and observations were entered into a computer-assisted data retrieval system. Cross sections of small intestine were scored for inflammation and necrosis using the following criteria:
The area at risk for development of this lesion is generally approximately 30% of the total area of a cross section of small intestine where the mesentery attaches.
Inflammation is localized to the mesentery and intestinal area at risk for necrosis with slight extension on either side of it. […] In this case, inflammation is scored based on overall severity ranging from 0.5 (very minimal) to 5 (severe) without regard for the extent of necrosis. The mean score for necrosis and inflammation was calculated for each animal and these mean scores were then summed to arrive at a total score. Each section also has a measurement of total width of mucosal necrosis.

UGT1A4 = target: T1, UGT1A4 (Homo sapiens, UniProt P22310); assay: UGT reaction phenotyping, UGT1A4; format: in vitro ADME; settings: glucuronide formed from trifluoperazine 1 μM, printed in the half-life column with *
T1 construct: purchased BD Biosciences
T1 sequence (P22310 29-534): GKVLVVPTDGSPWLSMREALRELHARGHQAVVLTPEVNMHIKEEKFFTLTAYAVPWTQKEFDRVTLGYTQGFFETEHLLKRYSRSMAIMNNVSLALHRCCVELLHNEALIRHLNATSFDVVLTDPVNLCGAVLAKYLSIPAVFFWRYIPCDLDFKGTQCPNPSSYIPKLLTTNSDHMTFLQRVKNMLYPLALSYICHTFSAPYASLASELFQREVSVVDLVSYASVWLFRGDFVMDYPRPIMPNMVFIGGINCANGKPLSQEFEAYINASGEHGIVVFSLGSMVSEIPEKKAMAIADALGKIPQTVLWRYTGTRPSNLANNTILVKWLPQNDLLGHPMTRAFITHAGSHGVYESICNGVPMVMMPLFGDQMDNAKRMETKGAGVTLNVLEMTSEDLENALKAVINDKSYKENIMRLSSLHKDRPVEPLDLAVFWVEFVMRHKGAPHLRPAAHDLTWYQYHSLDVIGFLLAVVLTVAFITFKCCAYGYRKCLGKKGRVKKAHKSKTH
Description: Experimental Summary: UGT Reaction Phenotyping (7 Isoforms).

C=C(C)[C@@H]1CCC(C)=C[C@H]1c1c(O)cc(CCCCC)cc1O [CBD, cannabidiol]
Latency to Clonic Seizure Event compared to PTZ alone (PTZ-induced seizure): did not yield a significantly different latency
Latency to First Seizure Event compared to PTZ alone (PTZ-induced seizure): did not result in a difference in latency to first seizure
Latency to Tonic Seizure Event compared to PTZ alone (PTZ-induced seizure): did not yield a significantly different latency
Percent of animals reaching Tonic-clonic Stage 6 compared to PTZ alone (PTZ-induced seizure): did not yield a significantly difference in proportion; also recorded: did not yield a significant difference in proportion
Racine scores over 5 minute intervals for 30 minutes compared to PTZ alone (PTZ-induced seizure): did not yield a significant change in clinical score
Survival Effects: mortality rate compared to the vehicle/PTZ group (PTZ-induced seizure): did not yield a significantly reduced mortality rate
Tmax ([1]; 100 mg/kg, IP): 60 min

CCCCCc1cc(OC)c(C/C=C(\C)CCC=C(C)C)c(OC)c1 [Compound 2, (E)-2-(3,7-dimethylocta-2,6-dien-1-yl)-1,3-dimethoxy-5-pentylbenzene]
glucuronidation / glucuronide formation in plasma (in words) [2]: completely blocked glucuronide formation
reduction of IL-1B and IFNy, performance relative to CBG [3]: equal to or better than CBG
small intestine gross score compared to vehicle ([4]; Group 4 (Compound 1: 50 mg/kg PO)): trend in lower small intestine gross score
reduction of necrosis width, of vehicle ([4]; Group 5): 99%
histopathology scores vs vehicle and dexamethasone ([4]; Group 5 & 6): significantly lower
necrosis width vs vehicle and dexamethasone ([4]; Group 5 & 6): significantly lower
reduction of necrosis width, of vehicle ([4]; Group 6): 96%
Histopathology scores vs vehicle (Group 2) ([4]; Groups 4-6): lower than the vehicle
necrosis width vs vehicle (Group 2) ([4]; Groups 4-6): lower than the vehicle
small intestine gross score compared to vehicle ([4]; Groups 5-6 (Compound 1: 200 and 800 mg/kg PO)): significant reductions in gross score
small intestine weight compared to vehicle ([4]; all three treatment groups (Groups 4-6), PO days 0-3): significantly lower
body weight change from Study Day -3 (preventing weight loss) ([4]; all treatment groups (Groups 4-6), PO days 0-3, in comparison to dexamethasone (Compound 2: and vehicle)): all trended towards or had significant differences in preventing weight loss

C=C(C)[C@@H]1CCC(C)=C[C@H]1c1c(O)cc(CCCCC)cc1OC [Compound 3, (1′R,2′R)-6-methoxy-5′-methyl-4-pentyl-2′-(prop-1-en-2-yl)-1′,2′,3′,4′-tetrahydro-[1,1′-biphenyl]-2-ol]
reduction of IL-1B and IFNy, performance relative to CBG [3]: equal to or better than CBG
Latency to Clonic Seizure Event compared to PTZ alone (PTZ-induced seizure): did not yield a significantly different latency; also recorded: strong trend toward longer latency
Latency to First Seizure Event compared to PTZ alone (PTZ-induced seizure): trended towards a longer latency
Latency to Tonic Seizure Event compared to PTZ alone (PTZ-induced seizure): significantly longer latency
Percent of animals reaching Tonic-clonic Stage 6 compared to PTZ alone (PTZ-induced seizure): significantly lower proportion
Racine scores over 5 minute intervals for 30 minutes compared to PTZ alone (PTZ-induced seizure): significant improvement in Racine scores
Survival Effects: mortality rate compared to the vehicle/PTZ group (PTZ-induced seizure): significantly reduced mortality rate
Cmax, fold greater than CBD ([1]; IP): 8 fold
plasma PK Area Under the Curve (AUC), fold greater than CBD ([1]; IP): over 4 fold
Tmax ([1]; plasma, 100 mg/kg IP, read-out: TMax (converted)): 30 min

C[N+]1([C@@H]2O[C@H](C(=O)[O-])[C@@H](O)[C@H](O)[C@H]2O)CCN(CCCN2c3ccccc3Sc3ccc(C(F)(F)F)cc32)CC1 [Trifluoperazine Glucuronide]
average peak area ratio at 60 min/average peak area ratio at 0 min (UGT1A4): *6.38
